Source: PubChem BioAssay (NCI)
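Protocol summary: plate cells (96-well), add compound at 5 concentrations, incubate 48 h, interpolate endpoints linearly. The concentration for 50% growth inhibition is given as GI50. At the TGI there is no net growth.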

Assays:
Experiment in all cases: DTP human tumour cell line panel, 48 h
[1] = tested on: SW-620 colon
[2] = tested on: 786-0 renal
[3] = tested on: NCI-H460 lung
[4] = tested on: HCT-116 colon
[5] = tested on: SF-268 CNS
[6] = tested on: A549 NSCLC
[7] = tested on: SK-MEL-28 melanoma
[8] = tested on: SN12C renal
[9] = tested on: HOP-62 NSCLC
[10] = tested on: HS 578T breast

Compound | TGI [1] [µM] | TGI [2] [µM] | TGI [3] [µM] | TGI [4] [µM] | TGI [5] [µM] | TGI [6] [µM] | TGI [7] [µM] | TGI [8] [µM] | TGI [9] [µM] | GI50 [1] [µM] | GI50 [2] [µM] | GI50 [3] [µM] | GI50 [4] [µM] | GI50 [5] [µM] | GI50 [6] [µM] | GI50 [10] [µM] | TGI [10] [µM] | GI50 [7] [µM] | GI50 [9] [µM] | GI50 [8] [µM]
CC1(Sc2ccccc2)CN(Cc2ccccc2)C1=O (stereo not given) | > 100 | > 100 | > 100 | > 100 | > 100 | > 100 | > 100 | > 100 | > 100 |  |  |  |  |  |  |  |  |  |  | 
CC1=C(C(=O)OCc2ccccc2)C(c2ccc3c(c2)OCO3)n2c(nc3ccccc32)N1 (stereo not given) | > 100 | > 100 | > 100 | > 100 | > 100 | > 100 | > 100 |  | > 100 | 0.346 | 0.47 | 0.369 | 0.42 | 0.513 | 0.69 | 0.299 | > 48.8 | > 100 | 8.01 | 
CCOC(=O)C=C1CCN(C(=O)c2ccccc2)CC1 | > 100 | > 100 | > 100 | > 100 | > 100 | > 100 | > 100 | > 100 | > 100 |  |  |  |  |  |  |  |  |  |  | 
Cc1cc(N2CCCCC2)nc(N(CCNc2ccnc3cc(Cl)ccc23)Cc2ccco2)n1 | 3.08 | 3.07 | 3.34 | 2.84 | 6.53 | 7.74 | 3.75 | 3.56 | 3.73 | 1.53 | 1.66 | 1.76 | 1.41 | 2.57 | 2.69 | 2.34 | 5.52 | 1.83 | 1.73 | 1.83
COC(=O)[C@@H]1CSC(=S)N1C(=O)C[C@H]1CC=CC[C@H]1CC(=O)Sc1ccccc1 | 33.9 | 32.3 | 33.5 | 30.8 | 35.1 | 40.1 | 32.1 | 30.4 | 38 |  |  |  |  |  |  |  |  |  |  | 
N#CC(C#N)=Cc1ccc(-c2ccc(-c3nc4ccccc4s3)cc2)o1 | > 100 | 16 | > 100 | 24.9 | > 100 | 38.5 | > 100 | 12.6 | 44.2 | 7.9 | 3.15 | 30.1 | 5.11 | 27.6 | 14.3 |  |  | 27.5 | 11.4 | 1.09
C=C1C(=O)OC2CC3(C)C=CC(=O)C(=C)C3CC12 (stereo not given) | 2.36 | 3.36 | 7.12 | 2.54 | 6.91 | 20.4 | 3.48 | 3.46 | 19.2 |  |  |  |  |  |  |  |  |  |  | 
N#CSc1ncnc2nc[nH]c12 | > 100 | > 100 | > 100 | > 100 | > 41.1 | > 100 | > 100 | > 100 | > 100 | 7.85 | 3.53 | 17.3 | 3.04 | 4.24 | 50.2 | 4.79 | > 92.6 | 44.4 | 2.31 | 51.7
CC12CCC=CC1CCC1C2CCC2(C)C(c3ccc(=O)oc3)CCC12O (stereo not given) | 0.33 | 0.357 |  | 0.389 | 0.253 | 0.111 | 1.38 | 0.571 | 0.21 | 0.0558 | 0.0618 |  | 0.0396 | 0.041 | 0.0295 | 0.0292 | 0.308 | 0.256 | 0.0511 | 0.0422
OCC1OC(n2ccc3c2ncn2ncnc32)C(O)C1O (stereo not given) | > 100 | > 100 | > 100 | > 100 | > 100 | > 100 | > 100 | > 100 | 33.1 | 0.528 | 2.47 | 2.25 | 1.38 | 6.83 | 4.91 | 6.46 | 85.9 | > 72.9 | 0.595 | 0.6
CCc1c(C)[nH]c(/C=C2\N=C(c3ccc[nH]3)C=C2OC)c1C | 6.56 | 0.675 | 10.8 |  | 11.3 | 10.5 | 1.87 | 15.6 | 4.04 |  | 0.177 | 0.094 | < 0.0462 | 0.224 | 0.498 | 0.164 | 2.3 | 0.365 | 0.25 | 0.627
CN(C)c1ccc2nc3ccc(=[N+](C)C)cc-3oc2c1 | > 100 | 90.9 | > 100 | 12.1 | 4.64 | 84.1 | 45.7 | 3.5 | 50.5 | 1.74 | 16.5 | 2.82 | 0.892 | 1.59 | 2.91 | 15.8 | 64 | 5.72 | 3.58 | 0.892
CCOP(=O)(OCC)C1CCCCOC1=O (stereo not given) | > 100 | > 100 | > 100 | > 100 | > 100 | > 100 | > 100 | > 100 | > 100 |  |  |  |  |  |  |  |  |  |  | 
COc1cc(Cn2cc3c(c2)-c2oncc2CC3)cc(OC)c1OC | > 100 | > 64.6 | 1.5 | > 100 | > 55.4 | > 100 |  |  | > 100 | 0.0327 | 0.109 | 0.034 | 0.0379 | 0.0778 | 0.0509 | 0.0306 | > 51.3 |  | 0.0479 | 0.0435
COc1cc2cc(Oc3ccc(NC(=O)Nc4ccc(Cl)c(C(F)(F)F)c4)cc3)c(C)nc2cc1OCCN1CCCCC1 | 3.48 | 3.17 | 3.47 | 2.98 |  |  | 3.23 | 3.26 |  | 1.9 | 1.64 | 1.85 | 1.54 |  |  |  |  | 1.79 |  | 1.67
O=C(CC1Sc2ccccc2NC1=O)Nc1cc(Cl)ccc1Cl (stereo not given) | > 100 | > 100 | > 100 | > 100 | > 100 | > 100 | > 100 | > 100 |  |  |  |  |  |  |  |  |  |  |  | 
CC(=O)[O][Pb]([O]C(C)=O)([c]1ccccc1)[c]1ccccc1 | > 100 | > 100 | > 100 | > 59.1 | 16.6 | > 100 | > 100 | > 100 | 52 | 5.42 | 3.53 | 7.51 | 4.81 | 3.29 | > 100 |  |  | 6.72 | 25.2 | 3.61
O=C(NCCCCCCNC(=O)c1cccc2ccccc12)c1cccc2ccccc12 | > 100 | 80.7 | > 100 | 53.9 | 81.9 | > 100 | > 100 | > 100 | 48.3 |  |  |  |  |  |  |  |  |  |  | 

Compound | TGI [1] [µM] | TGI [2] [µM] | TGI [3] [µM] | TGI [4] [µM] | TGI [5] [µM] | TGI [6] [µM] | TGI [7] [µM] | TGI [8] [µM] | TGI [9] [µM] | GI50 [1] [µM] | GI50 [2] [µM] | GI50 [3] [µM] | GI50 [4] [µM] | GI50 [5] [µM] | GI50 [6] [µM] | GI50 [10] [µM] | TGI [10] [µM] | GI50 [7] [µM] | GI50 [9] [µM] | GI50 [8] [µM]
CC12CCC(=O)C(O1)C1C(=O)c3cc4ccccc4cc3C(=O)C12 (stereo not given) |  | 30 | 51 | 34.6 | 53 | > 100 | 74.4 | 36.4 | > 100 |  | 16.3 | 14 | 17.7 | 16.1 | 32.4 | 28.7 | 73.1 | 20.3 | 45 | 16.5
CS(=O)(=O)CC1=Nc2nnc(CCCCCCCc3nnc4n3C(=O)C(CS(C)(=O)=O)=N4)n2C1=O | > 100 | > 100 | > 100 | > 100 | > 100 | > 100 | > 100 | > 100 | > 100 |  |  |  |  |  |  |  |  |  |  | 
CC1=C2CCCC2C/C(=N/Nc2ccc([N+](=O)[O-])cc2[N+](=O)[O-])CC1 (stereo not given) | > 100 | > 100 | > 100 | > 100 | > 100 | > 100 | > 100 | > 100 | > 100 |  |  |  |  |  |  |  |  |  |  | 
CN(C)CCCNC(=O)c1cc(NC(=O)CCNS(=O)(=O)c2ccc3c(c2)C(=O)c2ccccc2C3=O)cn1C | > 100 | > 100 | > 100 | > 100 | > 100 | > 100 |  | > 100 | > 100 | > 100 | > 100 | > 100 | > 100 | > 100 | > 100 | > 100 | > 100 |  | > 100 | > 100
CCC[CH2][Sn]([CH2]CCC)([O]C(C)=O)[O]C(C)=O | 2.65 | 2.83 | 7.55 | 3.26 | 4.1 | 15.3 | 2.27 | 2.54 | 3.9 | 0.694 | 1.48 | 2.6 | 1.56 | 1.23 | 3.65 |  |  | 1 | 2.17 | 1.24
CC1=CC(=O)c2c(O)cccc2C1=O | 4.15 | 3.01 | > 26.1 | 3.11 | 3.96 | 34.6 | 3.28 | 3.39 | 17.6 |  |  |  |  |  |  |  |  |  |  | 
CC(=O)/C(=C\c1ccco1)C(=O)Nc1ccccc1 | > 100 | > 100 | > 100 | > 100 | > 100 | > 100 | > 100 | > 100 | > 100 |  |  |  |  |  |  |  |  |  |  | 
COC(=O)CCC(=O)N1Cc2cc(C)ccc2N(C(=O)CCC(=O)OC)Cc2cc(C)ccc21 | > 100 | > 100 | > 100 | > 100 | > 100 | > 100 | > 100 | > 100 | > 100 |  |  |  |  |  |  |  |  |  |  | 
C=C1C(=O)O[C@H]2C[C@@H](C)[C@@H]3CC(=O)OC[C@@]3(C)CC12 (stereo not given in full) | 35.1 | > 100 | 51 | > 100 | > 100 | > 100 | 47.8 | 60.8 | > 100 |  |  |  |  |  |  |  |  |  |  | 
O=C1C/C(=C/c2ccc(/C=C3/CC(=O)N(c4cccc(Br)c4)C3=O)cc2)C(=O)N1c1cccc(Br)c1 | > 100 | > 100 | > 100 | > 100 | > 100 | > 100 | > 100 | > 100 | > 100 |  |  |  |  |  |  |  |  |  |  | 
CN(C)CCNC(=O)c1cccn2c(=O)c3cc4ccccc4cc3nc12 | 2.08 | 14.1 | 0.283 |  | 3.38 |  | 2.9 | > 100 | 0.554 | 0.0515 | 0.11 | 0.0439 |  | 0.126 |  | 0.153 | 1.76 | 0.424 | 0.0784 | 0.144
CN(C)c1ccc2c(NCCCCCCNc3ccnc4cc(N(C)C)ccc34)ccnc2c1 | > 100 | 45.3 | 57 | > 100 | > 100 | > 100 | 50.8 | > 100 | 67.9 |  |  |  |  |  |  |  |  |  |  | 
COC12C=CC(CC1)c1c(O)ccc(O)c12 (stereo not given) | > 63.8 | > 100 | > 100 | > 100 | > 31.6 | > 100 | > 100 | > 100 | > 100 |  |  |  |  |  |  |  |  |  |  | 
O=C(CCN1CCCC1)Nc1ccc2c(NCc3ccc(F)cc3)c3ccccc3nc2c1 | 1.53 | 1.94 | 1.15 | 1.35 | 1.91 | 1.79 | 2.88 | 1.66 | 2.62 | 0.353 | 0.55 | 0.336 | 0.313 | 0.465 | 0.384 |  |  | 1.47 | 0.611 | 0.39
Cc1ccc(C(=O)Nc2ccc(S(=O)(=O)O)c3cc(S(=O)(=O)O)cc(S(=O)(=O)O)c23)cc1NC(=O)c1cccc(N)c1 | > 100 | > 100 | > 100 |  | > 100 | > 100 | > 100 | > 100 | > 100 |  |  |  |  |  |  |  | > 100 |  |  | 
Cc1ccc2c(c1)C1(C)OC(CC(N)C1O)O2 (stereo not given) | > 100 | > 100 | > 100 | > 100 |  | > 100 | > 100 | > 100 | > 100 |  |  |  |  |  |  |  |  |  |  | 
CC1CC2C(=O)NC(=O)C2c2[nH]c3ccccc3c21 (stereo not given) | > 100 | > 100 | > 100 | > 100 | > 100 | > 100 |  | > 100 | > 100 |  |  |  |  |  |  |  |  |  |  | 
